Laboratory results taken from US20240208972A1, “LRRK2 INHIBITORS AND USES THEREOF” (NEURON23, INC., priority 2022, published 2024).

Legend:
[1] = target: T1, wt human LRRK2, catalytic site (Homo sapiens, UniProt Q5S007); assay: TR-FRET LanthaScreen Tb Kinase Activity Assay, LRRK2 kinase inhibition; format: biochemical; conditions: 2 nM wt human LRRK2, 400 nM peptide, 38 μM ATP
T1 construct: wt human LRRK2, catalytic site, catalytic site (ThermoFisher/USA); purchased ThermoFisher
Description: The compounds disclosed herein were tested for their inhibitory effect on LRRK2 kinase according to the following procedures.
The protocol for basic TR-FRET LanthaScreen Tb Kinase Activity Assay inhibitor studies is as follows. LanthaScreen Kinase Activity Assays (ThermoFisher/USA) to evaluate inhibitors were performed by addition of 100 nL of test compound in the corresponding DMSO dilutions/5 L of kinase/fluorescein-ERM(LRRKtide) peptide mixture, Compound & kinase were pre-incubated for 15 minutes, then 5 μl of ATP into 384 well small volume plates. After incubation for 120 minutes at room temperature, the detection reagents containing Tb-anti-pLRRKtide antibody were added to monitor the phosphrylation level of peptide. Then, after 60 min minutes incubation at room temperature plates were read in Envision. Data analysis of emission ratios was according to the LanthaScreen Tb Kinase Activity Assay protocol.
Kinase and assay components were adjusted to final concentrations according to the kit protocol. For LRRK2: 2 nM wt human LRRK2, catalytic site, catalytic site (ThermoFisher/USA), 400 nM peptide, 38 μM ATP in 1× Kinase Buffer A.
Basic protocol for TR-FRET LanthaScreen Tb Kinase Activity Assay inhibitor studies involved two steps: Enzymatic step: Addition of 100 nl of test compound in corresponding DMSO dilutions, 5 μl of kinase/substrate mixture, 5 μl of ATP into 384 well small volume plates. Incubation for 120 minutes at room temperature.
Detection step: Addition of 10 μl EDTA & antibody, read plate after 60 minutes. Data analysis of emission ratios according to KinEASE assay protocol.
Kinase and assay components were adjusted to final concentrations according to the kit protocol.

Caco-2 cells = assay: Caco-2 bidirectional permeability; format: in vitro ADME; conditions: for Caco-2 A2B (10^−6 cm/s): A to B; for Caco-2 A2B (10^−6 cm/s) / Caco-2 B2A (10^−6 cm/s): HBSS pH 7.4, 2 hours; for Caco-2 B2A (10^−6 cm/s): B to A; for Caco-2 ER: Efflux Ratio=Papp (BA)/Papp (AB)
Description: The compounds disclosed herein were tested in vitro on CaCo2 cell penetration according to the following procedures.
Test compounds were prepared in dimethyl sulfoxide (DMSO).
Caco-2 cells purchased from ATCC were seeded onto […] (PET) in 96-well Corning Insert plates at 1×10^5 cells/cm^2. The media were refreshed every 4 to 5 days until the 21st to 28th day for confluent cell monolayer formation.
Experiments were run in duplicate using a HBSS transport buffer containing 10 mM HEPES at pH 7.4. The test article TEST COMPOUND was tested bi-directionally at […] concentrations, the control compound digoxin was tested bi-directionally at 10 μM, and nadolol and metoprolol were tested at 2.0 μM in the A to B direction. Final DMSO concentrations were adjusted to less than 1%. The plates were incubated for 2 hours in a CO2 incubator at 37±1° C. with 5% CO2 at saturated humidity without shaking. Following incubation, samples were mixed with acetonitrile containing internal standard and centrifuged at 3200×g for 10 minutes. Then 200 μL of supernatant was taken from all samples. For TEST COMPOUND and digoxin, the supernatant was diluted with 200 μL of ultra-pure water and for nadolol and metoprolol, the supernatant was diluted with 600 μL of ultra-pure water. All samples were analyzed by LC-MS/MS. Concentrations of TEST COMPOUND and control compounds were determined in starting solutions, donor well solutions, and receiver well solutions using peak area ratios (PAR) of analyte to internal standard. After the transport assay, a lucifer yellow rejection assay was run to determine the Caco-2 cell monolayer integrity.
The apparent permeability (Papp), the % recovery and the efflux ratio were calculated as follows: • 1. Papp=(dCr/dt)×Vr/(A×C0) • 2. % Recovery=100×[(Vr×Cr)+(Vd×Cd)]/(Vd×C0) • 3. Efflux Ratio=Papp (BA)/Papp (AB) • Where: • dCr/dt is the slope of the cumulative concentration in the receiver compartment versus time (mM/s). • Vr and Vd is the volume in the receiver and donor compartments (0.075 mL on the apical side, 0.25 mL on the basolateral side), respectively. • A is the surface area of the cell monolayer (0.0804 cm^2). • C0 is the measured donor concentrations (μM) at the beginning of the experiment. • Cd and Cr are the final measured concentrations in the donor and receiver compartments, respectively.
The cell monolayer tight junction integrity assay was conducted after completion of the transport assay by adding Lucifer Yellow (LY) to the apical wells at 100 μM and incubating the cells for 30 minutes. Following incubation, tight junction integrity was assessed from LY concentrations in the basolateral compartment (receiver well) and the apical compartment (donor well) using fluorescence detection as follows: […]

[2] = Human hepatocyte stability, in vitro h-Hept CLpredict; format: in vitro ADME; conditions: cryopreserved hepatocytes, predicted hepatic clearance, cells without asterisk, read-out: hHep Cl
Description: The compounds disclosed herein were tested in vitro on human hepatocyte for in vitro h-Hept CLpredict according to the following procedures. • 1. Compound sock solutions were prepared by dissolving test compound and positive control in dimethyl sulfoxide (DMSO) at a concentration of 10 mM. Stock solutions were then diluted to 100 μM solutions by combining 198 μL of 50% acetonitrile/50% water with 2 μL of the 10 mM stock stock in separate conical tubes. • 2. Cryopreserved hepatocytes were prepared as follows: Incubation medium (William's E Medium supplemented with GlutaMAX) and hepatocyte thawing medium were placed in a 37° C. water bath and allowed to warm for at least 15 minutes prior to use. Cryopreserved hepatocytes were removed from storage, ensuring that vials remained at cryogenic temperatures until thawed. Cells were thawed by placing the vials in a 37° C. water bath and gently shaking the vials for 2 minutes. After thawing was completed, vials were sprayed with 70% ethanol and transferred to a biosafety cabinet. Hepatocytes were transferred into 50 mL conical tube containing thawing medium using wide-bore pipette tips. Tubes were placed into a centrifuge and spun at 100 g for 10 minutes. Then thawing medium was aspirated and hepatocytes were resuspended in enough incubation medium to yield−1.5×10^6 cells/mL. Cells were counted using acridine orange and propidium iodide (AO/PI) staining, and the viable cell density was determined. Cells were diluted with incubation medium to a working cell density of 0.5×10^6 viable cells/mL. • 3. To determine hepatocyte stability, 198 μL of hepatocytes were transferred into each well of a 96-well non-coated plate. Plates were placed in an incubator to allow the hepatocytes to warm for 10 minutes. • 4. The reaction was started by transferring 2 μL of the 100 μM test compound or positive control solution into respective wells of the 96-well non-coated plates. Plates were returned to the incubator until 25 μL aliquots of well contents were sampled at time points of 0, 15, 30, 60, 90 and 120 minutes. The aliquots were then mixed with 6 volumes (150 μL) of acetonitrile containing internal standard, IS (100 nM alprazolam, 200 nM caffeine and 100 nM tolbutamide) to terminate the reaction and vortexed for 5 minutes. After centrifuging the samples for 45 minutes at 3,220 g, aliquots of 100 μL of the supernatant were taken and diluted with 100 μL of ultra-pure water. The mixture was used for LC/MS/MS analysis. All incubations were performed in duplicate.
All calculations were carried out using Microsoft Excel. Peak area ratios (PAR) were determined from extracted ion chromatograms. The in vitro half-life (t1/2) of parent compound was determined by regression analysis of the percent parent disappearance vs. time curve as follows:
The in vitro half-life (in vitro t1/2) was determined from the slope value:
Conversion of the in vitro t1/2 (in minutes) into the in vitro intrinsic clearance (in vitro CLint, in μL/min/1×10^6 cells) was done using the following equation (mean of duplicate determinations): […]
The scaled-up intrinsic clearance (CLint, mL/min/kg), predicted hepatic clearance (CLH, mL/min/kg) and hepatic extraction ratio (ER) were calculated using the following equations:
CLint=(0.693/t1/2)*(1/(hepatocyte concentration (0.5*10^6 cells/mL))*scaling factors (Table (A)
• CLHept-predict=(QH*Scaled-up CLint*fub)/(QH+Scaled-up CLint*fub) • ER=CLH/QH • Where: • V=incubation volume (0.2 mL) • N=number of hepatocytes per well (0.1*10^6 cells) • QH=hepatic blood flow (mL/min/kg) (Table (A)
• fub=fraction of unbound drug in plasma, assumed to be 1 • Values used for calculation of the predicted hepatic clearance parameters data processing rules are outlined in the following tables (A) (B)

T1 sequence (Q5S007 1879-2138 limits assumed): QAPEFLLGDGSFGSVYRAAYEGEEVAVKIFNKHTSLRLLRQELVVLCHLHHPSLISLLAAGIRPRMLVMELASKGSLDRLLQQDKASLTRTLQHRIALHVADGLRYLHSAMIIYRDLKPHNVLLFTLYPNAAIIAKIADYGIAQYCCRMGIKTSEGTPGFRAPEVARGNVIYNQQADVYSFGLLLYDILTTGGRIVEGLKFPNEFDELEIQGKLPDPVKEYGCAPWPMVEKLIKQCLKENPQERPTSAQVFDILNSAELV

IC50 [1] [nM]	Caco-2 A2B (10^−6 cm/s) (Caco-2 cells)	Caco-2 B2A (10^−6 cm/s) (Caco-2 cells)	Caco-2 ER (Caco-2 cells)	CLhep predicted at 1 µM [2] [mL/min/kg]	SMILES
< 2	H (H (High permeability)”: A2B (B2A)>5)	H (H (High permeability)”: A2B (B2A)>5)	N (N (Non-substrate)”: ER<2.5)	6.3 to 14.7	Cc1n[nH]c2c1N=C(c1c(F)cccc1F)Nc1ccc(N3C[C@H](C)O[C@@H](C)C3)cc1-2 [Example 24, (2S,6S)-4-(5-(2,6-difluorophenyl)-3-methyl-1,6-dihydrobenzo[d]pyrazolo[3,4-f][1,3]diazepin-9-yl)-2,6-dimethylmorpholine]
< 2	H (H (High permeability)”: A2B (B2A)>5)	H (H (High permeability)”: A2B (B2A)>5)	N (N (Non-substrate)”: ER<2.5)	6.3 to 14.7	Cc1cc(-c2ccc3c(c2)-c2[nH]nc(C)c2N=C(c2c(F)cccc2F)N3)ccn1 [Example 52, 5-(2,6-difluorophenyl)-3-methyl-9-(2-methyl-4-pyridyl)-1,6-dihydropyrazolo [4,3-d] [1, 3] benzodiazepine]
< 2	H (H (High permeability)”: A2B (B2A)>5)	H (H (High permeability)”: A2B (B2A)>5)	N (N (Non-substrate)”: ER<2.5)	< 6.3	CCc1n[nH]c2c1N=C(c1c(F)cccc1F)Nc1cnc(N3CCO[C@@H](C)C3)cc1-2 [Example 35, (S)-4-(5-(2,6-difluorophenyl)-3-ethyl-1,6-dihydropyrazolo[4,3-d]pyrido[4,3-f][1,3]diazepin-9-yl)-2-methylmorpholine]
< 2	H (H (High permeability)”: A2B (B2A)>5)	H (H (High permeability)”: A2B (B2A)>5)	N (N (Non-substrate)”: ER<2.5)	> 14.7	Cc1n[nH]c2c1N=C(c1c(F)cccc1F)Nc1cnc(N3CC4CC4C3)cc1-2 (stereo not shown) [Example 56, 13-(3-azabicyclo[3.1.0]hexan-3-yl)-8-(2,6-difluorophenyl)-5-methyl-3,4,7,9,12-pentazatricyclo[8.4.0.02,6]tetradeca-1(10),2(6),4,7,11,13-hexaene]
< 2	H (H (High permeability)”: A2B (B2A)>5)	H (H (High permeability)”: A2B (B2A)>5)	N (N (Non-substrate)”: ER<2.5)	6.3 to 14.7	Cc1n[nH]c2c1N=C(c1c(F)cccc1F)Nc1cnc(N3CC(F)(F)C3)cc1-2 [Example 2, 13-(3,3-difluoroazetidin-1-yl)-8-(2,6-difluorophenyl)-5-methyl-3,4,7,9,12-pentazatricyclo[8.4.0.02,6]tetradeca-1(10),2(6),4,7,11,13-hexaene]
< 2	H (H (High permeability)”: A2B (B2A)>5)	H (H (High permeability)”: A2B (B2A)>5)	N (N (Non-substrate)”: ER<2.5)	6.3 to 14.7	Cc1n[nH]c2c1N=C(c1c(F)cccc1F)Nc1c-2cc(N2CCC(C)(C#N)CC2)nc1C [Example 43, 1-[8-(2,6-difluorophenyl)-5,11-dimethyl-3,4,7,9,12-pentazatricyclo[8.4.0.02,6]tetradeca-1(10),2(6),4,7,11,13-hexaen-13-yl]-4-methyl-piperidine-4-carbonitrile]

SMILES	IC50 [1] [nM]	Caco-2 A2B (10^−6 cm/s) (Caco-2 cells)	Caco-2 B2A (10^−6 cm/s) (Caco-2 cells)	Caco-2 ER (Caco-2 cells)	CLhep predicted at 1 µM [2] [mL/min/kg]
Cc1n[nH]c2c1N=C(c1c(F)cccc1F)Nc1cnc(-n3ccc(C(F)(F)F)n3)cc1-2 [Example 15, 8-(2,6-difluorophenyl)-5-methyl-13-[3-(trifluoromethyl)pyrazol-1-yl]-3,4,7,9,12-pentazatricyclo[8.4.0.02,6]tetradeca-1(10),2(6),4,7,11,13-hexaene]	< 2	M (M (Moderate permeability)”: 1≤A2B (B2A)≤5)	M (M (Moderate permeability)”: 1≤A2B (B2A)≤5)	N (N (Non-substrate)”: ER<2.5)	6.3 to 14.7
COc1nc(N2CCOCC2)cc2c1NC(c1c(F)cccc1F)=Nc1c(C)n[nH]c1-2 [Example 45, 4-[8-(2,6-difluorophenyl)-11-methoxy-5-methyl-3,4,7,9,12-pentazatricyclo[8.4.0.02,6]tetradeca-1(10),2(6),4,7,11,13-hexaen-13-yl]morpholine]	< 2	H (H (High permeability)”: A2B (B2A)>5)	M (M (Moderate permeability)”: 1≤A2B (B2A)≤5)	N (N (Non-substrate)”: ER<2.5)	6.3 to 14.7
